Consider 39 compounds from patent USRE35281E, “Tetrazole derivatives and aldose reductase inhibition therewith” (Wakamoto Pharmaceutical Co., Ltd., priority 1989, dated 1996).

One may read the inhibition as the change of the read-out against control, counted positive when it falls. Usually IC50 stands for the concentration needed to halve the response being measured.

The first assay has as its target T1, aldose reductase (Rattus norvegicus, UniProt P07943).
T1 construct: their crystalline lenses were immediately removed and stored at -80° C; The lenses were homogenized; from tissue; host or cells: crystalline lens of six-week-old male SD rats (homogenate supernatant, dialysed)
Kind of assay: Aldose Reductase Inhibition Test (Experiment 1). The class given is biochemical, rat (male SD rat crystalline lens). Conditions: *Concentration of 10^-6 M; DL-glycerine aldehyde 10 mM, pH 6.2, 30° C., 5 min. On the procedure:
Six-week-old male SD rats were killed under ether anesthesia and their crystalline lenses were immediately removed and stored at -80° C. The lenses were homogenized in 3 volumes of 135 mM sodium potassium phosphate buffer (pH: 7.0) and centrifuged at a rate of 30,000 rpm for 30 min. The supernatant was dialyzed overnight against 0.05M sodium chloride, to produce an aldose reductase solution. All operations were conducted at 4° C. The enzyme solution was stored at -80° C.
(§1) The activity of aldose reductase was determined according to a slight modification of the method of J. H. Kinoshita et al [J. Biol. Chem., 240, 877 (1965)]. Namely, 0.1 ml of DL-glycerine aldehyde (final concentration: 10 mM) was added to 0.9 ml of 100 mM sodium potassium phosphate buffer (pH 6.2) which contained lithium sulfate (final concentration: 400 mM), reduced nicotinamide adenine dinucleotide phosphate (final concentration: 0.15 mM), the enzyme solution, and the compound to be tested (final concentration: 5×10^-5 M or 10^-6 M), and then the reaction was conducted at 30° C. for 5 min. […] The maximum reducing rate of the absorbance (U) during the reaction was determined. By substracting, from this value, the maximum reducing rate (Uo) at 340 nm of the reaction solution before the addition of the substrate (DL-glycerine aldehyde), the reaction rate (V) (V=U-Uo) was calculated as a true reaction rate in the presence of the compound to be tested.
(§2) The same procedure was repeated except for the absence of the compound to be tested. A true reaction rate (Vo) in case the enzyme was not inhibited was calculated (Vo =U'-Uo '). The inhibitory activity of aldose reductase was determined by the following formula. [formula]
In the case of `CC(C)(C)c1ccc(-c2nnnn2CC(=O)O)cc1` [Compound 3-26, 5-(4-t-Butylphenyl)-1-tetrazoleacetic acid], the inhibition at 1 µM worked out at 94%.
Same read-out and setting: the same measure for `Cc1cccc(-c2nnnn2CC(=O)O)c1` [Compound 3-5, 5-(3-Methylphenyl)-1-tetrazoleacetic acid]: 96%.
`COc1ccc(-c2nnnn2CC(=O)O)cc1` [Compound 3-7, 5-(4-Methoxyphenyl)-1-tetrazoleacetic acid] returned an inhibition at 1 µM of 95%.
Same read-out and setting: the same measure for `O=C(O)Cn1nnnc1-c1ccc(Cl)cc1` [Compound 3-10, 5-(4-Chlorophenyl)-1-tetrazoleacetic acid]: 85%; for `Cc1ccc(-c2nnnn2CC(=O)O)cc1[N+](=O)[O-]` [Compound 3-11, 5-(3-Nitro-4-methylphenyl)-1-tetrazoleacetic acid]: 92%; for `CCCCCCCc1ccc(-c2nnnn2CC(=O)O)cc1` [Compound 3-24, 5-(4-n-Heptylphenyl)-1-tetrazoleacetic acid]: 96%.
Still for that read-out and setting: with `O=C(O)Cn1nnnc1-c1ccc(Cl)c([N+](=O)[O-])c1` [Compound 3-2, 5-(3-Nitro-4-chlorophenyl)-1-tetrazoleacetic acid] the figure was 84%.

Still in this assay, the particulars now being: final concentration 5×10^-5 M (values without asterisk); DL-glycerine aldehyde 10 mM, pH 6.2, 30° C., 5 min.
On to `CCOC(=O)C(=O)Nc1cc(-c2nnn[nH]2)cc(NC(=O)C(=O)OCC)c1Cl` [Compound 4-3, 5-(4-Chloro-3,5-diethyloxalylaminophenyl)tetrazole], for which the inhibition at 50 µM stood at 95%.
Still for that read-out and setting: the same measure for `COC(=O)Cn1nnnc1-c1ccc(Cl)c([N+](=O)[O-])c1` [Compound 2-6, Methyl 5-(3-nitro-4-chlorophenyl)-1-tetrazoleacetate]: 42%; for `COC(=O)Cn1nnnc1-c1ccc(Cl)cc1` [Compound 2-1, Methyl 5-(4-chlorophenyl)-1-tetrazoleacetate]: 31%; for `CCCCOC(=O)Cn1nnnc1-c1ccccc1` [Compound 1-4, n-Butyl 5-phenyl-1-tetrazoleacetate]: 63%.
Take `O=C(O)CCn1nnnc1-c1ccccc1` [Compound 3-15, 3-(5-Phenyltetrazol-1-yl)propionic acid]: testing at 50 µM gave an inhibition of 80%.
Same read-out and setting: with `CCCCOC(=O)C(=O)Nc1cc(-c2nnn[nH]2)cc(NC(=O)C(=O)OCCCC)c1Cl` [Compound 4-4, 5-(4-Chloro-3,5-di-n-butyloxalylaminophenyl)tetrazole] the figure was 92%; with `COC(=O)Cn1nnnc1-c1ccc(OC)cc1` [Compound 1-8, Methyl 5-(4-methoxyphenyl)-1-tetrazoleacetate], 43%.
With `O=C(O)CCCCn1nnnc1-c1ccccc1` [Compound 3-17, 5-(5-Phenyltetrazol-1-yl)valeric acid], 50 µM produced 68% inhibition.
`COC(=O)Cn1nnnc1-c1ccc([N+](=O)[O-])cc1` [Compound 2-5, Methyl 5-(4-nitrophenyl)-1-tetrazoleacetate] displayed an inhibition at 50 µM of 44%.
Same read-out and setting: with `COC(=O)Cn1nnnc1-c1cccc(C)c1` [Compound 1-6, Methyl 5-(3-methylphenyl)-1-tetrazoleacetate] the figure was 44%; with `CCCCOC(=O)C(=O)Nc1cccc(-c2nnnn2CC(=O)OCC)c1` [Compound 2-8, Butyl 3'-(1-ethoxycarbonylmethyl-tetrazol-5-yl)oxanilate], 52%; with `COC(=O)Cn1nnnc1-c1ccccc1` [Compound 1-1, methyl 5-phenyl-1-tetrazoleacetate], 92%.
On the same count and under the same terms, with `CCCCOC(=O)C(=O)Nc1cccc(-c2nnn[nH]2)c1` [Compound 4-1, 5-(3-n-Butyloxalylaminophenyl)tetrazole] the figure was 58%; with `O=C(O)CCCn1nnnc1-c1ccccc1` [Compound 3-16, 4-(5-Phenyltetrazol-1-yl)buatyric acid], 79%; with `COC(=O)Cn1nnnc1-c1ccc(-c2nnnn2CC(=O)OC)cc1` [Compound 2-10, 1,4-Bis(1-methoxycarbonylmethyl-tetrazol-5-yl)benzene], 36%.
Still for that read-out and setting: the same measure for `O=C(O)C(=O)Nc1cccc(-c2nnn[nH]2)c1` [Compound 5-1, 3-(1H-Tetrazol-5-yl)oxanilic acid]: 63%; for `CCCCOC(=O)C(=O)Nc1ccccc1-c1nnn[nH]1` [Compound 4-2, 5-(2-n-Butyloxalylaminophenyl)tetrazole]: 69%; for `CC(C(=O)O)n1nnnc1-c1ccccc1` (centres unmarked) [Compound 3-18, 2-(5-Phenyltetrazol-1-yl)propionic acid]: 91%.
Regarding `COC(=O)Cn1nnnc1-c1cccc([N+](=O)[O-])c1` [Compound 2-4, Methyl 5-(3-nitrophenyl)-1-tetrazoleacetate], the inhibition at 50 µM is 30%.

In another assay the target is T1, aldose reductase. Kind of assay: Aldose reductase inhibition, IC50 determination (Experiment 2). The assay is classed as biochemical, rat (male SD rat crystalline lens). The settings on record: calculated from inhibitions at three final concentrations; DL-glycerine aldehyde 10 mM, pH 6.2, 30° C. On the procedure:
Six-week-old male SD rats were killed under ether anesthesia and their crystalline lenses were immediately removed and stored at -80° C. […] The supernatant was dialyzed overnight against 0.05M sodium chloride, to produce an aldose reductase solution. All operations were conducted at 4° C. The enzyme solution was stored at -80° C.
as §1, with “Namely,” for “The activity of aldose reductase was determined according to a slight modification of the method of J. H. Kinoshita et al [J. Biol. Chem., 240, 877 (1965)]. Namely,”
as §2
In the same manner as Experiment 1, the inhibitions at final concentrations of 10^-6, 10^-7 and […] for the compound to be tested were calculated.
Take `CC(C)(C)c1ccc(-c2nnnn2CC(=O)O)cc1` [Compound 3-26, 5-(4-t-Butylphenyl)-1-tetrazoleacetic acid]: the IC50 is 27 nM.
With `O=C(O)Cn1nnnc1-c1ccc(CBr)cc1` [Compound 3-41, 5-(4-Bromomethylphenyl)-1-tetrazoleacetic acid], the IC50 was 20 nM.
On the same count and under the same terms, with `O=C(O)Cn1nnnc1-c1ccc(O)cc1` [Compound 3-31, 5-(4-Hydroxyphenyl)-1-tetrazoleacetic acid] the figure was 43 nM; with `Cc1cccc(-c2nnnn2CC(=O)O)c1` [Compound 3-5, 5-(3-Methylphenyl)-1-tetrazoleacetic acid], 33 nM; with `COc1ccc(-c2nnnn2CC(=O)O)cc1` [Compound 3-7, 5-(4-Methoxyphenyl)-1-tetrazoleacetic acid], 48 nM.
Regarding `COc1cccc(-c2nnnn2CC(=O)O)c1` [Compound 3-33, 5-(3-Methoxyphenyl)-1-tetrazoteacetic acid], the IC50 was 28 nM.
The same measure, in the same setting: the same measure for `COc1ccc(-c2nnnn2CC(=O)O)cc1OC` [Compound 3-34, 5-(3,4-Dimethoxyphenyl)-1-tetrazoleacetic acid]: 63 nM; for `CCCCCCCOc1ccc(-c2nnnn2CC(=O)O)cc1` [Compound 3-32, 5-(4-n-Heptoxyphenyl)-1-tetrazoleacetic acid]: 29 nM.
Same read-out and setting: with `O=C(O)Cn1nnnc1-c1ccc(C(=O)O)cc1` [Compound 3-37, 5-(4-Carboxyphenyl)-1-tetrazoleacetic acid] the figure was 82 nM; with `Cc1ccc(-c2nnnn2CC(=O)O)cc1[N+](=O)[O-]` [Compound 3-11, 5-(3-Nitro-4-methylphenyl)-1-tetrazoleacetic acid], 42 nM; with `CSc1ccc(-c2nnnn2CC(=O)O)cc1` [Compound 3-42, 5-(4-Methylthiophenyl)-1-tetrazoleacetic acid], 37 nM.
Same read-out and setting: the same measure for `CCCCCCCc1ccc(-c2nnnn2CC(=O)O)cc1` [Compound 3-24, 5-(4-n-Heptylphenyl)-1-tetrazoleacetic acid]: 17 nM; for `Nc1ccc(-c2nnnn2CC(=O)O)cc1` [Compound 3-40, 5-(4-Aminophenyl)-1-tetrazoleacetic acid]: 41 nM; for `CCCCc1ccc(-c2nnnn2CC(=O)O)cc1` [Compound 3-14, 5-(4-n-Butylphenyl)-1-tetrazoleacetic acid]: 17 nM.
Take `O=C(O)Cn1nnnc1-c1ccc(C(=O)N2CCCCC2)cc1` [Compound 3-38, 5-(4-Piperidinocarbonylphenyl)-1-tetrazoleacetic acid]: the IC50 was 54 nM.
The same measure, in the same setting: the same measure for `CCCCNS(=O)(=O)c1ccc(-c2nnnn2CC(=O)O)cc1` [Compound 3-45, 5-(4-n-Butylaminosulfonylphenyl)-1-tetrazoleacetic acid]: 78 nM; for `CCCN(CCC)C(=O)c1ccc(-c2nnnn2CC(=O)O)cc1` [Compound 3-39, 5-(4-Di-n-propylaminocarbonylphenyl)-1-tetrazoleacetic acid]: 73 nM.
The same measure, in the same setting: the same measure for `CCCCOc1ccc(-c2nnnn2CC(=O)O)cc1OCCCC` [Compound 3-35, 5-(3,4-Di-n-butoxyphenyl)-1-tetrazoleacetic acid]: 33 nM.
